In this assay the target is T1, Sodium/hydrogen exchanger 9B2 (Homo sapiens, UniProt Q86UD5).
T1 sequence (Q86UD5 whole entry): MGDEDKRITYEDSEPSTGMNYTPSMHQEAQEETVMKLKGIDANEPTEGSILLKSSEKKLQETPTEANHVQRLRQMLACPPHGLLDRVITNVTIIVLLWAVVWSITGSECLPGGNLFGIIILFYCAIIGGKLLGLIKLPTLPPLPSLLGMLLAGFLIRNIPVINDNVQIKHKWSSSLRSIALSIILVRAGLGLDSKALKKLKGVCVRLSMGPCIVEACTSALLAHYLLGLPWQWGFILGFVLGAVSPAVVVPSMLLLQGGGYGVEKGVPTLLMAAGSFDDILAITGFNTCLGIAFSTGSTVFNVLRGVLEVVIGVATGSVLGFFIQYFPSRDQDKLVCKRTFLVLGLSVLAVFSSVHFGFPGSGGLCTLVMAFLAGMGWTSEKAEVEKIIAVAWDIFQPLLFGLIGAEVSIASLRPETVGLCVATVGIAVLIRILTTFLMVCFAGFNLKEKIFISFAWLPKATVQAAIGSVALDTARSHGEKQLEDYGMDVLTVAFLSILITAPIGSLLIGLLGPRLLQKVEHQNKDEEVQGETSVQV
As to the kind of experiment: Inhibition of the Sodium/Hydrogen Exchanger-Like Domain-Containing Protein 2 (NHA2, SLC9B2) as assessed by a sensor pH-sensitive genetically encoded fluorescent sensor (pHAxensor) in HEK-293 cells stably transfected with SLC9B2 (PubChem AID: 1794821). In kind it is functional, cell-based, HEK293.

By IC50 is commonly meant the concentration that inhibits the measured activity by half.

The structures appear in SMILES notation.

Compound `O=C(CCc1ccc(O)cc1)c1c(O)cc(O)cc1O` [PHLORETIN] registered an IC50 of 90 µM.

Values taken from ChEMBL document CHEMBL5209583, “pH biosensor based assay for SLC9B2 using HEK-293 SLC9B2 OE cells” (2022).
